Reference: ChEMBL document CHEMBL1137033, “Novel bisbenzamidines as potential drug candidates for the treatment of Pneumocystis carinii pneumonia” (Bioorg Med Chem Lett, 2004)

Experiments:
Pneumocystis carinii = assay: inhibitory concentration against Pneumocystis carinii; format: functional, organism-based
A549 = assay: Cytotoxicity against A549 cell line; format: functional, cell-based; conditions: Homo sapiens

| SMILES | IC50 (Pneumocystis carinii) [nM] | IC50 (A549) [nM] |
| --- | --- | --- |
| N=C(N)c1ccc(OCc2ccccc2COc2ccc(C(=N)N)cc2)cc1 | 1400 | 33100 |
| N=C(N)c1ccc(NC(=O)CCCC(=O)Nc2ccc(C(=N)N)cc2)cc1 | 3 | > 300 |
| N=C(N)c1ccc(COc2ccccc2OCc2ccc(C(=N)N)cc2)cc1 | 1300 | 44100 |
| N=C(N)c1ccc(NC(=O)CCCCC(=O)Nc2ccc(C(=N)N)cc2)cc1 | 2 | > 200 |
| N=C(N)c1ccc(OCc2ccc(COc3ccc(C(=N)N)cc3)cc2)cc1 | 1300 | 30200 |
| N=C(N)c1ccc(OC(=O)c2ccc(C(=O)Oc3ccc(C(=N)N)cc3)cc2)cc1 [BIS(4-CARBAMIMIDOYLPHENYL)TEREPHTHALATE] | 13400 | 121000 |
| N=C(N)c1ccc(OCCCCCOc2ccc(C(=N)N)cc2)cc1 [PENTAMIDINE] | 500 | 24000 |
